In patent publication US20090030024A1, “THIAZOLES AS FUNGICIDES” (priority 2005, published 2009) one finds chromatographic logP and logP data, which are given here for 29 molecules.

SMILES strings stand for the structures. Marks after values point to notes of the source that are not given here.

The first series is described as follows: logP determination by retention times (calibration with alkan-2-ones).
Settings: not given
Molecule `Cc1nc(C2CC2)sc1-c1ccnc(Nc2cccc(C(=O)O)c2)n1` [Example 147, 3-{[4-(2-cyclopropyl-4-methyl-1,3-thiazol-5-yl)pyrimidin-2-yl]amino}benzoic acid] registered a chromatographic logP of 2.27.
`Cc1nc(C2CC2)sc1-c1ccnc(Nc2cccc(O)c2)n1` [Example 148, 3-{[4-(2-cyclopropyl-4-methyl-1,3-thiazol-5-yl)pyrimidin-2-yl]amino}phenol] came in with a chromatographic logP of 2.24.
In the case of `CCc1nc(C)c(-c2ccnc(Nc3cccc(O)c3)n2)s1` [Example 150, 3-{[4-(2-ethyl-4-methyl-1,3-thiazol-5-yl)pyrimidin-2-yl]amino}phenol], the chromatographic logP amounted to 2.12.
Molecule `COCc1nc(C)c(-c2ccnc(Nc3ccc(C#N)cc3)n2)s1` [Example 179, 4-({4-[2-(methoxymethyl)-4-methyl-1,3-thiazol-5-yl]pyrimidin-2-yl}amino)benzonitrile] had a chromatographic logP of 2.57.
In turn, `COc1cccc(Nc2nccc(-c3sc(C)nc3C)n2)c1` [Example 183, 4-(2,4-dimethyl-1,3-thiazol-5-yl)-N-(3-methoxyphenyl)pyrimidine-2-amine] displayed a chromatographic logP of 2.64.
In turn, `Cc1nc(C)c(-c2ccnc(Nc3cccc([N+](=O)[O-])c3)n2)s1` [Example 184, 4-(2,4-dimethyl-1,3-thiazol-5-yl)-N-(3-nitrophenyl)pyrimidine-2-amine] had a chromatographic logP of 2.61.
For `Cc1nc(C)c(-c2ccnc(Nc3ccc(F)c(C)c3)n2)s1` [Example 185, 4-(2,4-dimethyl-1,3-thiazol-5-yl)-N-(4-fluoro-3-methylphenyl)pyrimidine-2-amine], the chromatographic logP came out at 3.07.
In turn, `COc1ccc(Nc2nccc(-c3sc(C)nc3C)n2)cn1` [Example 187, 4-(2,4-dimethyl-1,3-thiazol-5-yl)-N-(6-methoxypyridin-3-yl)pyrimidine-2-amine] came in with a chromatographic logP of 2.09.
On the same count and under the same terms, the same measure for `Cc1nc(C)c(-c2ccnc(Nc3cccc(C(F)(F)F)c3)n2)s1` [Example 188, 4-(2,4-dimethyl-1,3-thiazol-5-yl)-N-[3-(trifluoromethyl)phenyl]pyrimidine-2-amine]: 3.3; for `Cc1nc(C)c(-c2ccnc(Nc3ccc(C(F)(F)F)cc3)n2)s1` [Example 189, 4-(2,4-dimethyl-1,3-thiazol-5-yl)-N-[4-(trifluoromethyl)phenyl]pyrimidine-2-amine]: 3.56; for `COc1ccc(Nc2nccc(-c3sc(N)nc3C)n2)cc1OC` [Example 202, 4-(2-amino-4-methyl-1,3-thiazol-5-yl)-N-(3,4-dimethoxyphenyl)pyrimidine-2-amine]: 1.28.
In turn, `Cc1nc(N)sc1-c1ccnc(Nc2cccc(Cl)c2)n1` [Example 204, 4-(2-amino-4-methyl-1,3-thiazol-5-yl)-N-(3-chlorophenyl)pyrimidine-2-amine] displayed a chromatographic logP of 1.78.
In turn, `Cc1nc(N)sc1-c1ccnc(Nc2cccc([N+](=O)[O-])c2)n1` [Example 206, 4-(2-amino-4-methyl-1,3-thiazol-5-yl)-N-(3-nitrophenyl)pyrimidine-2-amine] yielded a chromatographic logP of 1.5.
Turning to `Cc1cc(Nc2nccc(-c3sc(N)nc3C)n2)ccc1F` [Example 207, 4-(2-amino-4-methyl-1,3-thiazol-5-yl)-N-(4-fluoro-3-methylphenyl)pyrimidine-2-amine], the chromatographic logP is 1.68.
For the molecule `Cc1nc(N)sc1-c1ccnc(Nc2ccc(F)cc2)n1` [Example 208, 4-(2-amino-4-methyl-1,3-thiazol-5-yl)-N-(4-fluorophenyl)pyrimidine-2-amine], the chromatographic logP was determined as 1.56.
For `Cc1nc(N)sc1-c1ccnc(Nc2cccc(C(F)(F)F)c2)n1` [Example 209, 4-(2-amino-4-methyl-1,3-thiazol-5-yl)-N-[3-(trifluoromethyl)phenyl]pyrimidine-2-amine], the chromatographic logP came out at 1.97.
`COc1cc(Nc2nccc(-c3sc(C4CCCCC4)nc3C)n2)cc(OC)c1OC` [Example 215, 4-(2-cyclohexyl-4-methyl-1,3-thiazol-5-yl)-N-(3,4,5-trimethoxyphenyl)pyrimidine-2-amine]: the chromatographic logP is 3.97.
`Cc1nc(C2CCCCC2)sc1-c1ccnc(Nc2cccc([N+](=O)[O-])c2)n1` [Example 216, 4-(2-cyclohexyl-4-methyl-1,3-thiazol-5-yl)-N-(3-nitrophenyl)pyrimidine-2-amine]: the chromatographic logP turned out to be 4.63.
Still for that read-out and setting: the same measure for `COc1ccc(Nc2nccc(-c3sc(C4CCCCC4)nc3C)n2)cn1` [Example 217, 4-(2-cyclohexyl-4-methyl-1,3-thiazol-5-yl)-N-(6-methoxypyridin-3-yl)pyrimidine-2-amine]: 3.86; for `Cc1nc(C2CCCCC2)sc1-c1ccnc(Nc2ccc(C(F)(F)F)cc2)n1` [Example 218, 4-(2-cyclohexyl-4-methyl-1,3-thiazol-5-yl)-N-[4-(trifluoromethyl)phenyl]pyrimidine-2-amine]: 5.62.
The molecule `Cc1nc(C2CCCCC2)sc1-c1ccnc(Nc2ccccc2)n1` [Example 219, 4-(2-cyclohexyl-4-methyl-1,3-thiazol-5-yl)-N-phenylpyrimidine-2-amine] yielded a chromatographic logP of 4.65.
Still for that read-out and setting: the same measure for `Cc1nc(C2CC2)sc1-c1ccnc(Nc2ccc3c(c2)OCCO3)n1` [Example 220, 4-(2-cyclopropyl-4-methyl-1,3-thiazol-5-yl)-N-(2,3-dihydro-1,4-benzodioxin-6-yl)pyrimidine-2-amine]: 2.91.
In the case of `COc1ccc(OC)c(Nc2nccc(-c3sc(C4CC4)nc3C)n2)c1` [Example 221, 4-(2-cyclopropyl-4-methyl-1,3-thiazol-5-yl)-N-(2,5-dimethoxyphenyl)pyrimidine-2-amine], the chromatographic logP worked out at 3.71.
`COc1ccc(Nc2nccc(-c3sc(C4CC4)nc3C)n2)cc1OC` [Example 223, 4-(2-cyclopropyl-4-methyl-1,3-thiazol-5-yl)-N-(3,4-dimethoxyphenyl)pyrimidine-2-amine] had a chromatographic logP of 2.6.
For `COc1cccc(Nc2nccc(-c3sc(C4CC4)nc3C)n2)c1` [Example 224, 4-(2-cyclopropyl-4-methyl-1,3-thiazol-5-yl)-N-(3-methoxyphenyl)pyrimidine-2-amine], the chromatographic logP stood at 3.28.
The molecule `Cc1nc(C2CC2)sc1-c1ccnc(Nc2cccc([N+](=O)[O-])c2)n1` [Example 225, 4-(2-cyclopropyl-4-methyl-1,3-thiazol-5-yl)-N-(3-nitrophenyl)pyrimidine-2-amine] showed a chromatographic logP of 3.29.
Take `Cc1cc(Nc2nccc(-c3sc(C4CC4)nc3C)n2)ccc1F` [Example 226, 4-(2-cyclopropyl-4-methyl-1,3-thiazol-5-yl)-N-(4-fluoro-3-methylphenyl)pyrimidine-2-amine]: the chromatographic logP was 3.71.
In turn, `Cc1nc(C2CC2)sc1-c1ccnc(Nc2ccc(F)cc2)n1` [Example 227, 4-(2-cyclopropyl-4-methyl-1,3-thiazol-5-yl)-N-(4-fluorophenyl)pyrimidine-2-amine] yielded a chromatographic logP of 3.31.

Staying with this series, now noted: HPLC, reversed-phase C 18, EEC Directive 79/831 Annex V.A8; method *: 40° C., 0.1% aqueous formic acid and acetonitrile, linear gradient 10% to 95% acetonitrile.
Turning to `Cc1nc(NC(C)(C)C)sc1-c1ccnc(Nc2ccc(O)cc2)n1` [Example 180, 4-({4-[2-(tert-butylamine)-4-methyl-1,3-thiazol-5-yl]pyrimidin-2-yl}amino)phenol], the logP is 1.67*.

Staying with this series, now noted: logP(HCOOH), HCOOH.
For `Cc1nc(C2CCCCC2)sc1-c1ccnc(Nc2cccc([N+](=O)[O-])c2)n1` [Example 216, 4-(2-cyclohexyl-4-methyl-1,3-thiazol-5-yl)-N-(3-nitrophenyl)pyrimidine-2-amine], the chromatographic logP amounted to 4.63.

One may read the chromatographic logP as a lipophilicity value derived from retention on a column.
